# Test results as given in publication PMC2723102, “The interactome of the amyloid β precursor protein family members is shaped by phosphorylation of their intracellular domains” (Molecular Neurodegeneration, 2009).
# Columns and labels:
# Type in all cases: binding
# GST-Grb2 = biological target: T1, GST-Grb2 (Homo sapiens, UniProt P62993); assay: BIAcore surface plasmon resonance, GST-Grb2; conditions: SPR, BIAcore 3000, strep-tag peptide amine coupled to CM-5 chip (4500–7500 RU), analyte GST-Grb2
# T1 construct: All these targets analyzed contain either an SH2 or a PTB domain fused to GST; made in house; host or cells: bacterial cultures
# T1 sequence (P62993 60-152 limits assumed): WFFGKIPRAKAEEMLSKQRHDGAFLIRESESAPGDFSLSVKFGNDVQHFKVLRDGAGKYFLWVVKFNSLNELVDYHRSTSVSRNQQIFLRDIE
# Excerpt: (§1) Binding of GST and GST-Grb2, NUMB p71, and X11β domains to strep-tag AID peptide or different phosphorylation forms was monitored by surface plasmon resonance (SPR) on a BIAcore 3000 machine (BIAcore, Neuchâtel, Switzerland). The strep-tag peptide and different phosphorylation forms of AID peptides were covalently amine coupled to a CM-5 sensor chip by use of the amine covalent coupling. An immobilization level of 4500–7500 resonance units was obtained. A nonderivatized flowcell serves as a reference surface. Interactions between GST and GST-Grb2, NUMB p71, and X11β to strep-tag peptides were determined by the change in signal measured in RU.
# GST-X11β = biological target: T2, GST-X11β (Homo sapiens, UniProt Q99767); assay: BIAcore surface plasmon resonance, GST-X11β; conditions: SPR, BIAcore 3000, strep-tag peptide amine coupled to CM-5 chip (4500–7500 RU), analyte GST-X11β
# T2 construct: All these targets analyzed contain either an SH2 or a PTB domain fused to GST; made in house; host or cells: bacterial cultures
# T2 sequence (Q99767 368-555 limits assumed): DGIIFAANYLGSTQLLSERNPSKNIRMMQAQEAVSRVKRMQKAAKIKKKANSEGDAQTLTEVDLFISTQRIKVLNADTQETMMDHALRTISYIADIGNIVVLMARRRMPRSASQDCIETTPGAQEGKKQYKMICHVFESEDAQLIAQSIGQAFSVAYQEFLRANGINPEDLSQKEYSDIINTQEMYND
# Excerpt: as §1
# GST-NUMB-p71 = biological target: T3, GST-NUMB-p71 (Homo sapiens, UniProt P49757); assay: BIAcore surface plasmon resonance, GST-NUMB-p71; conditions: SPR, BIAcore 3000, strep-tag peptide amine coupled to CM-5 chip (4500–7500 RU), analyte GST-NUMB-p71
# T3 construct: All these targets analyzed contain either an SH2 or a PTB domain fused to GST; made in house; host or cells: bacterial cultures
# T3 sequence (P49757 33-182 isoform P49757-3): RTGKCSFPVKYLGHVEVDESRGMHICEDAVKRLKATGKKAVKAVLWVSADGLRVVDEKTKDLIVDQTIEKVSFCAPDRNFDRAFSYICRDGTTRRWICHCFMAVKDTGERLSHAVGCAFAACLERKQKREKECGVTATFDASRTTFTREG
# Excerpt: as §1
Kd (GST-NUMB-p71) [nM],Compound,Kd (GST-Grb2) [nM],Kd (GST-X11β) [nM]
,CC[C@H](C)[C@H](NC(=O)[C@H](CO)NC(=O)[C@@H](NC(=O)[C@H](Cc1ccc(O)cc1)NC(=O)[C@H](CCC(N)=O)NC(=O)[C@H](CCCCN)NC(=O)[C@H](CCCCN)NC(=O)[C@H](CCCCN)NC(=O)[C@H](CC(C)C)NC(=O)[C@H](CCSC)NC(=O)[C@@H](N)C(C)C)[C@@H](C)O)C(=O)N[C@@H](Cc1c[nH]cn1)C(=O)N[C@@H](Cc1c[nH]cn1)C(=O)NCC(=O)N[C@H](C(=O)N[C@H](C(=O)N[C@@H](CCC(=O)O)C(=O)N[C@H](C(=O)N[C@@H](CC(=O)O)C(=O)N[C@@H](C)C(=O)N[C@@H](C)C(=O)N[C@H](C(=O)N[C@H](C(=O)N1CCC[C@H]1C(=O)N[C@@H](CCC(=O)O)C(=O)N[C@@H](CCC(=O)O)C(=O)N[C@@H](CCCNC(=N)N)C(=O)N[C@@H](Cc1c[nH]cn1)C(=O)N[C@@H](CC(C)C)C(=O)N[C@@H](CO)C(=O)N[C@@H](CCCCN)C(=O)N[C@@H](CCSC)C(=O)N[C@@H](CCC(N)=O)C(=O)N[C@@H](CCC(N)=O)C(=O)N[C@@H](CC(N)=O)C(=O)NCC(=O)N[C@@H](Cc1ccc(OP(=O)(O)O)cc1)C(=O)N[C@@H](CCC(=O)O)C(=O)N[C@@H](CC(N)=O)C(=O)N1CCC[C@H]1C(=O)N[C@H](C(=O)N[C@@H](Cc1ccc(O)cc1)C(=O)N[C@@H](CCCCN)C(=O)N[C@@H](Cc1ccccc1)C(=O)N[C@@H](Cc1ccccc1)C(=O)N[C@@H](CCC(=O)O)C(=O)N[C@@H](CCC(N)=O)C(=O)N[C@@H](CCSC)C(=O)N[C@@H](CCC(N)=O)C(=O)N[C@@H](CC(N)=O)C(=O)O)[C@@H](C)O)[C@@H](C)OP(=O)(O)O)C(C)C)C(C)C)C(C)C)C(C)C [AIDpTpY],0.413,13.1
997,CC[C@H](C)[C@H](NC(=O)[C@H](CO)NC(=O)[C@@H](NC(=O)[C@H](Cc1ccc(O)cc1)NC(=O)[C@H](CCC(N)=O)NC(=O)[C@H](CCCCN)NC(=O)[C@H](CCCCN)NC(=O)[C@H](CCCCN)NC(=O)[C@H](CC(C)C)NC(=O)[C@H](CCSC)NC(=O)[C@@H](N)C(C)C)[C@@H](C)O)C(=O)N[C@@H](Cc1c[nH]cn1)C(=O)N[C@@H](Cc1c[nH]cn1)C(=O)NCC(=O)N[C@H](C(=O)N[C@H](C(=O)N[C@@H](CCC(=O)O)C(=O)N[C@H](C(=O)N[C@@H](CC(=O)O)C(=O)N[C@@H](C)C(=O)N[C@@H](C)C(=O)N[C@H](C(=O)N[C@H](C(=O)N1CCC[C@H]1C(=O)N[C@@H](CCC(=O)O)C(=O)N[C@@H](CCC(=O)O)C(=O)N[C@@H](CCCNC(=N)N)C(=O)N[C@@H](Cc1c[nH]cn1)C(=O)N[C@@H](CC(C)C)C(=O)N[C@@H](CO)C(=O)N[C@@H](CCCCN)C(=O)N[C@@H](CCSC)C(=O)N[C@@H](CCC(N)=O)C(=O)N[C@@H](CCC(N)=O)C(=O)N[C@@H](CC(N)=O)C(=O)NCC(=O)N[C@@H](Cc1ccc(OP(=O)(O)O)cc1)C(=O)N[C@@H](CCC(=O)O)C(=O)N[C@@H](CC(N)=O)C(=O)N1CCC[C@H]1C(=O)N[C@H](C(=O)N[C@@H](Cc1ccc(O)cc1)C(=O)N[C@@H](CCCCN)C(=O)N[C@@H](Cc1ccccc1)C(=O)N[C@@H](Cc1ccccc1)C(=O)N[C@@H](CCC(=O)O)C(=O)N[C@@H](CCC(N)=O)C(=O)N[C@@H](CCSC)C(=O)N[C@@H](CCC(N)=O)C(=O)N[C@@H](CC(N)=O)C(=O)O)[C@@H](C)O)[C@@H](C)O)C(C)C)C(C)C)C(C)C)C(C)C [AIDpY],2.57,
